From patent US20060204449A1, “Nasal pharmaceutical composition of piribedil” (priority 2003, published 2006)

Key:
[1] = Kinetics, tolerance and bioavailability study in healthy volunteers (nasal administration); assay type: in vivo, humans; settings: human, plasma, inhaled or intranasal, formulation of Example 1, deduced from the kinetics results, read-out: bioavailability of piribedil administered by the nasal route
Protocol: Kinetics, Tolerance and Bioavailability Study in Healthy Volunteers
A study was carried out in 24 healthy volunteers in order to assess the local tolerance of the pharmaceutical composition according to the invention and also the kinetics of the formulation.
This study was carried out using the formulation described in Example 1, administered with the aid of a metering pump which delivers 100 μl of solution on each spray. The doses of piribedil tested are as follows: 0.1 mg, 0.25 mg, 0.5 mg, 1 mg and 2 mg, administered using two sprays each of 100 μl.

[2] = humans; cited from earlier work

c1cnc(N2CCN(Cc3ccc4c(c3)OCO4)CC2)nc1 [piribedil, Piribedil]
bioavailability [1]: 50 to 70%
bioavailability by the oral route in relation to the parenteral route [2]: low
